Source: PMC8302504, “Efficacy of Fenfluramine and Norfenfluramine Enantiomers and Various Antiepileptic Drugs in a Zebrafish Model of Dravet Syndrome” (Neurochemical Research, 2021)
“Also recorded” adds a separate entry of the source.

What was measured:
[1] = tested on: zebrafish scn1Lab−/− mutant larvae; assay: Noninvasive local field potential (LFP) recordings from the optic tectum; assay type: in vivo, Danio rerio; conditions: 22 h; for effect on cumulative duration of epileptiform events: Fig. 2B; for effect on frequency of epileptiform events: Fig. 2C
Protocol: (§1) WT and homozygous zebrafish larvae (scn1Lab^−/− mutants) (6 dpf) were treated as described above. After incubation, larvae were immobilized in 2% low-melting-point agarose (Invitrogen) at room temperature (RT) and the epileptiform activities were measured by noninvasive local field potential (LFP) recording from the skin above the optic tectum (midbrain). The single glass electrode filled with artificial cerebrospinal fluid (ACSF) (124 mM NaCl, 2 mM KCl, 2 mM MgSO4, 2 mM CaCl2, 1.25 mM KH2PO4, 26 mM NaHCO3, and 10 mM glucose) was positioned on the skin above the optic tectum. Each recording lasted for 10 min. Epileptiform activity was quantified by using Clampfit 10.2 software (Molecular Devices Corporation, USA60), as reported previously by our group.

WT zebrafish larvae = assay: Toxicity evaluation: maximum tolerated concentration (MTC); assay type: in vivo, Danio rerio; conditions: WT larvae 6 dpf, 22 h incubation
Protocol: To evaluate the maximum tolerated concentration (MTC) of the individual compounds, a dozen of WT zebrafish larvae (6 dpf) were individually incubated in single wells of a 96-well plate, and treated with two-fold serial dilutions of the compounds. After 22 h incubation under standard conditions (28 °C, 14/10 light/dark cycle), larvae were individually examined for their touch response, posture, edema, signs of necrosis, morphology, heartbeat rate, and swim bladder condition under the microscope.

[2] = tested on: zebrafish scn1Lab−/− mutant larvae; assay: Locomotor activity measurement (behavioral assay) in the zebrafish DS model; assay type: in vivo, Danio rerio; conditions: 22 h; for effect on epileptiform (hyper-)locomotor activity: single treatment at MTC, Fig. 2A
Protocol: (§2) WT and homozygous zebrafish larvae (scn1Lab^−/− mutants) (6 dpf) were individually positioned in single wells of a 96-well plate, and incubated in 100 μL VHC or VHC supplemented with compound or combined compounds for 22 h at 28 °C on a 14/10 h light/dark cycle. Then, the plates were placed immediately in an enclosed tracking device (ZebraBox Viewpoint, France), followed by a 30 min chamber habituation and 10 min recording. Locomotor activity over the total tracking period of 10 min was quantified by ZebraLab software (Software Viewpoint, France) using the lardist parameter (total distance in large movements) and 150 bkg (background) as a threshold, as reported previously by our group. For “small/large movement” and “inact/small movement”, a threshold was used of 6.4 and 3.3, respectively. Data were pooled from three or four independent experiments, with at least five larvae for each treatment and 20–30 larvae for each experimental condition, and expressed as “cm” per 100 s.

[3] = molecular target: norepinephrine (NE) uptake; set-up: method as in earlier work; conditions: 34 (Rothman et al.); read-out: Ki values for uptake inhibition, NE; cited from earlier work
[4] = tested on: zebrafish scn1Lab−/− mutant model of DS; assay: Overall antiepileptic activity in the zebrafish scn1Lab−/− mutant model (locomotor and LFP read-outs together); assay type: in vivo, Danio rerio; conditions: 22 h incubation
Protocol: as §2, §1

[5] = tested on: norepinephrine (NE) release; set-up: method as in earlier work; conditions: 34 (Rothman et al.); cited from earlier work
5-HT2C = tested on: 5-HT2C; set-up: method as in earlier work; conditions: 34 (Rothman et al.); cited from earlier work
dopamine (DA) uptake = molecular target: dopamine (DA) uptake; set-up: method as in earlier work; conditions: 34 (Rothman et al.); read-out: Ki values for uptake inhibition, DA; cited from earlier work
5-HT2B = tested on: 5-HT2B; set-up: method as in earlier work; conditions: 34 (Rothman et al.); cited from earlier work
dopamine (DA) release = tested on: dopamine (DA) release; set-up: method as in earlier work; conditions: 34 (Rothman et al.); cited from earlier work
[6] = Compound concentration (uptake) in larval zebrafish heads by LC-MS; assay type: in vivo, Danio rerio; conditions: immersion at MTC for 30 min, 4 h and 22 h, Fig. 4
Protocol: WT and homozygous zebrafish larvae (scn1Lab^−/− mutants) (6 dpf) were treated as described above. After incubation with compounds, larvae were washed and euthanized by exposure to cold Milli-Q water. Then, the heads of larvae were carefully separated under the microscope, and five heads were transferred collectively into one 1.5 mL Eppendorf tube with acid-washed glass beads (diameter: […], Sigma Aldrich) and 275 µL extraction medium (HPLC grade methanol, Sigma Aldrich). Next, the samples were homogenized by 10 min of ultrasonication (Diagenode Bioruptor Plus, Belgium) at 4 °C. The overall ultrasonication process encompassed 10 cycles of 30 s with pauses of 30 s in-between with high energy input. […]
Quantification was performed through the use of a calibration curve created for each compound separately in blank matrix, which was derived from a pooled set of blank fish heads (n = 40). […] Ranges consisted of at least 5 concentrations, each of which was analyzed in replicate (n = 5). […]
The mean head weight (± S.D.) of a 6 dpf and 7 dpf zebrafish larva was 192 ± 10 µg and 196 ± 13 µg, respectively, as measured by weighing three batches of 50 fresh heads after removing excess water with filter paper. The final uptake was calculated according to the method reported by Copmans et al., and expressed as amount/head weight (µg/g).

[7] = tested on: 5-HT transporter proteins; set-up: method as in earlier work; conditions: 34 (Rothman et al.); read-out: EC50 values for release, 5-HT; cited from earlier work
5-HT2A = tested on: 5-HT2A; set-up: method as in earlier work; conditions: 34 (Rothman et al.); cited from earlier work
serotonin uptake = molecular target: serotonin uptake; set-up: method as in earlier work; conditions: 34 (Rothman et al.); read-out: Ki values for uptake inhibition, 5-HT; cited from earlier work
[8] = tested on: DS zebrafish mutant model; set-up: method as in PMID 29335539; conditions: cited from earlier work
[9] = VPA single treatment at 250 µM, Fig. 3

CCNC(C)Cc1cccc(C(F)(F)F)c1 (racemic) [(±)-FFA, (±)-Fenfluramine]
effect on epileptiform brain discharges ([1]; (±)-FFA single treatment at 3.13 µM, Fig. 3E, F): not on the epileptiform brain discharges
effect on cumulative duration of epileptiform events ([1]; single treatment at MTC): decrease
effect on frequency of epileptiform events ([1]; single treatment at MTC): dramatically attenuated
maximum tolerated concentration (MTC) (WT zebrafish larvae): 50 µM
effect on locomotor activity ([2]; (±)-FFA single treatment at 3.13 µM, Fig. 3D): significant effect
effect on epileptiform (hyper-)locomotor activity [2]: significantly counteracted

CCN[C@@H](C)Cc1cccc(C(F)(F)F)c1 [(+)-FFA]
Ki [3]: 1290 ± 52 nM
antiepileptic activity in the model (overall) [4]: more consistent and concentration-dependent; also recorded: significant antiepileptic effects
EC50 [5]: 302 ± 20 nM
Kact values for 5-HT2 receptor subtypes, 5-HT2C (5-HT2C): 362 ± 64 nM
Ki (dopamine (DA) uptake): > 20000 nM
Kact values for 5-HT2 receptor subtypes, 5-HT2B (5-HT2B): 379 ± 70 nM
EC50 (dopamine (DA) release): > 10000 nM

C[C@H](N)Cc1cccc(C(F)(F)F)c1 [(+)-norFFA]
Ki [3]: 205 ± 19 nM
total uptake in larval heads (amount of compound/head weight) [6]: somewhat similar uptake; also recorded: taken up less than the parent compound
antiepileptic activity in the model (overall) [4]: more consistent and concentration-dependent; also recorded: significant antiepileptic effects
EC50 [5]: 72.7 ± 5.4 nM
Kact values for 5-HT2 receptor subtypes, 5-HT2C (5-HT2C): 13 ± 2.4 nM
EC50 [7]: 59.3 ± 2.4 nM
Ki (dopamine (DA) uptake): 2310 ± 87 nM
Kact values for 5-HT2 receptor subtypes, 5-HT2A (5-HT2A): 630 ± 141 nM
Kact values for 5-HT2 receptor subtypes, 5-HT2B (5-HT2B): 18.4 ± 5.3 nM
Ki (serotonin uptake): 214 ± 9 nM
EC50 (dopamine (DA) release): 924 ± 112 nM

CCN[C@H](C)Cc1cccc(C(F)(F)F)c1 [(−)-FFA]
Ki [3]: 7190 ± 559 nM
antiepileptic activity in the model (overall) [4]: significant antiepileptic effects
EC50 [5]: > 10000 nM
Kact values for 5-HT2 receptor subtypes, 5-HT2C (5-HT2C): 360 ± 91 nM
Ki (dopamine (DA) uptake): > 20000 nM
Kact values for 5-HT2 receptor subtypes, 5-HT2B (5-HT2B): 1248 ± 252 nM
EC50 (dopamine (DA) release): > 10000 nM

C[C@@H](N)Cc1cccc(C(F)(F)F)c1 [(−)-norFFA]
effect on frequency and cumulative duration of the epileptiform events ([1]; at least at MTC, Fig. 7): all compounds except for (−)-norFFA significantly reduced
Ki [3]: 2050 ± 297 nM
total uptake in larval heads (amount of compound/head weight) [6]: somewhat similar uptake
antiepileptic activity in the model (overall) [4]: less conclusive
EC50 [5]: 474 ± 40 nM
Kact values for 5-HT2 receptor subtypes, 5-HT2C (5-HT2C): 18 ± 3.5 nM
EC50 [7]: 287 ± 14 nM
Ki (dopamine (DA) uptake): 19200 nM
Kact values for 5-HT2 receptor subtypes, 5-HT2A (5-HT2A): 1565 ± 190 nM
Kact values for 5-HT2 receptor subtypes, 5-HT2B (5-HT2B): 357 ± 105 nM
Ki (serotonin uptake): 1180 ± 89 nM
EC50 (dopamine (DA) release): > 10000 nM

C=C(C)[C@@H]1CCC(C)=C[C@H]1c1c(O)cc(CCCCC)cc1O [CBD, cannabidiol]
effect on epileptiform brain discharges ([1]; single treatment at MTC): failed to rescue; also recorded: not active
maximum tolerated concentration (MTC) (WT zebrafish larvae): 6.25 µM
effect on epileptiform (hyper-)locomotor activity [2]: failed to rescue; also recorded: not active

NC(=O)N1c2ccccc2C=Cc2ccccc21 [CBZ, carbamazepine]
effect on epileptiform brain discharges ([1]; single treatment at MTC): no inhibitory effects
maximum tolerated concentration (MTC) (WT zebrafish larvae): 50 µM
effect on epileptiform (hyper-)locomotor activity [2]: no inhibitory effects

CN1C(=O)CC(=O)N(c2ccccc2)c2cc(Cl)ccc21 [CLB, clobazam]
efficacy in the DS zebrafish mutant model [8]: ineffective
effect on epileptiform brain discharges ([1]; single treatment at MTC): failed to rescue
maximum tolerated concentration (MTC) (WT zebrafish larvae): 100 µM
effect on epileptiform (hyper-)locomotor activity [2]: failed to rescue

CC[C@@H](C(N)=O)N1CCCC1=O [LEV, levetiracetam]
effect on epileptiform brain discharges ([1]; single treatment at MTC): failed to rescue
maximum tolerated concentration (MTC) (WT zebrafish larvae): 10000 µM
antiepileptic activity in the model (overall) [4]: failed to suppress
effect on epileptiform (hyper-)locomotor activity [2]: failed to rescue

Nc1nnc(-c2cccc(Cl)c2Cl)c(N)n1 [LTG, lamotrigine]
effect on epileptiform brain discharges ([1]; single treatment at MTC): no inhibitory effects
maximum tolerated concentration (MTC) (WT zebrafish larvae): 100 µM
effect on epileptiform (hyper-)locomotor activity [2]: no inhibitory effects

O=C1NC(=O)C(c2ccccc2)(c2ccccc2)N1 [PHT, Phenytoin]
effect on epileptiform brain discharges ([1]; single treatment at MTC): no inhibitory effects
maximum tolerated concentration (MTC) (WT zebrafish larvae): 100 µM
effect on epileptiform (hyper-)locomotor activity [2]: no inhibitory effects

CC(C)(C)C(O)/C=C/c1ccc2c(c1)OCO2 (centres unmarked) [STP, stiripentol]
effect on epileptiform brain discharges ([1]; single treatment at MTC): failed to rescue; also recorded: not active
maximum tolerated concentration (MTC) (WT zebrafish larvae): 50 µM
effect on epileptiform (hyper-)locomotor activity [2]: failed to rescue; also recorded: not active

CC1(C)O[C@@H]2[C@@H](CO[C@@]3(COS(N)(=O)=O)OC(C)(C)O[C@@H]23)O1 [TPM, topiramate]
effect on cumulative duration of epileptiform events ([1]; single treatment at MTC): decrease
effect on frequency of epileptiform events ([1]; single treatment at MTC): dramatically attenuated
maximum tolerated concentration (MTC) (WT zebrafish larvae): 200 µM
antiepileptic activity in the model (overall) [4]: pronounced therapeutic activity
effect on epileptiform (hyper-)locomotor activity [2]: significantly counteracted

CCCC(CCC)C(=O)O [VPA, Valproate]
effect on epileptiform brain discharges [1, 9]: limited and statistically non-significant effect; also recorded: not active
effect on cumulative duration of epileptiform events ([1]; single treatment at MTC): complete rescue
effect on frequency of epileptiform events ([1]; single treatment at MTC): complete rescue
maximum tolerated concentration (MTC) (WT zebrafish larvae): 1000 µM
effect on locomotor activity [2, 9]: limited and statistically non-significant effect; also recorded: not active
effect on epileptiform (hyper-)locomotor activity [2]: complete rescue
